{"source": "ChEMBL document CHEMBL5518222", "about": "“Retro-Inverso Collagen Modulator Peptide Derived from Serpin A1 with Enhanced Stability and Activity In Vitro” (J Med Chem, 2024)", "key": {"[1]": {"test": "Upregulation of procollagen level in neonatal HDF cell conditioned media at 20 uM incubated for 72 hrs by Western blot analysis relative to control", "format": "functional, Homo sapiens, NHDF"}, "[2]": {"test_system": "NHDF", "test": "Upregulation of collagen level in neonatal HDF cell lysate at 20 uM incubated for 72 hrs by Western blot analysis", "format": "functional, subcellular", "settings": "Homo sapiens"}, "[3]": {"test_system": "NHDF", "test": "Downregulation of enzyme-digested low molecular weight collagen level in neonatal HDF cell conditioned media at 20 uM incubated for 48 hrs by Western blot analysis", "format": "functional, cell-based", "settings": "Homo sapiens"}, "[4]": {"test_system": "NHDF", "test": "Cytotoxicity against neonatal HDF cells assessed as reduction in cell viability incubated for 72 hrs by MTS assay", "format": "toxicity, cell-based", "settings": "human"}, "[5]": {"biological_target": "T1, Neutrophil elastase (Homo sapiens) (UniProt P08246)", "T1 sequence (whole entry)": "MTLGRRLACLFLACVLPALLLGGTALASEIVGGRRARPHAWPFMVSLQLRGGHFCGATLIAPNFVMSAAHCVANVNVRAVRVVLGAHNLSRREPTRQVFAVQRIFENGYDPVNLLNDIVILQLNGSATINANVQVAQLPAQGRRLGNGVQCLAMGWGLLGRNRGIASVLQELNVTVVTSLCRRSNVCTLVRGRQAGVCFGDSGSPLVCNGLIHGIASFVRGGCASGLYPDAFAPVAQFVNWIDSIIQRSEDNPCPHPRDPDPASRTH", "test": "Inhibition of neutrophil elastase (unknown origin)"}, "[6]": {"biological_target": "Matrix metalloproteinase-9 (Homo sapiens) (UniProt P14780)", "sequence (P14780 whole entry)": "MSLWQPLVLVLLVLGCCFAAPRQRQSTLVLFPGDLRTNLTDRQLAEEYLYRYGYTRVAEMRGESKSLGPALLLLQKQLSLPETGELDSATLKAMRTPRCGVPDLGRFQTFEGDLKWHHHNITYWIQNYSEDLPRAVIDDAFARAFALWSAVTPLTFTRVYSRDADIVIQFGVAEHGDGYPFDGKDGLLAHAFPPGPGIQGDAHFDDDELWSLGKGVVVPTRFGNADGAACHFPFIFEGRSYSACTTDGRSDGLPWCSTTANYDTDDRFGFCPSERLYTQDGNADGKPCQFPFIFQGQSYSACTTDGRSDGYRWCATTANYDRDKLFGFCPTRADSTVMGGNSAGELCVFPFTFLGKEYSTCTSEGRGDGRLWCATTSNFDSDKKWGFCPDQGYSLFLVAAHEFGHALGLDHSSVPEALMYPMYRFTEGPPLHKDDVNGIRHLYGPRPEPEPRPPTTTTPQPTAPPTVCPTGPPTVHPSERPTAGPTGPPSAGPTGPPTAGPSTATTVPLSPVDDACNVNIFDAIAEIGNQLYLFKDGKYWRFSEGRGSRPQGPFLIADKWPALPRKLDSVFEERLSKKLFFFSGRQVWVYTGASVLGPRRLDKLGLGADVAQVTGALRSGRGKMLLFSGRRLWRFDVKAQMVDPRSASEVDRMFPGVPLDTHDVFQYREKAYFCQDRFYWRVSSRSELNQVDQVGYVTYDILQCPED", "test": "Inhibition of MMP-9 (unknown origin)"}, "[7]": {"test": "Stability of compound in human skin homogenate assessed as dermal protease mediated stability by measuring compound remaining measured after 24 hrs by HPLC-MS/MS analysis", "format": "ADME, tissue-based, Skin of body", "settings": "read-out: Stability"}, "[8]": {"test_system": "NHDF", "test": "Inhibition of cell invasion in neonatal HDF cells assessed as decrease in number of migrated cells in acceptor chamber at 20 uM incubated for 72 hrs by Boyden chamber invasion assay", "format": "functional, cell-based", "settings": "Homo sapiens"}}, "note": "Active and inactive are the calls of the source. No cut-off for these calls is given here. Peptide text beside a SMILES is read from it. * marks the point of attachment. Palmitoyl = CCCCCCCCCCCCCCCC(=O)*", "data": [{"compound": "CC(=O)N[C@@H](CCCCN)C(=O)N[C@H](C(=O)N[C@H](C(=O)N[C@@H](CC(N)=O)C(N)=O)C(C)C)C(C)C", "values": [{"measurement": "Activity", "setting": "[1]", "value": 87, "unit": "%"}, {"measurement": "Activity", "setting": "[2]", "value": "Active"}, {"measurement": "Activity", "setting": "[3]", "value": "Active"}, {"measurement": "Activity", "setting": "[4]", "value": "Non-Toxic"}]}, {"compound": "CC(=O)N[C@H](C(=O)N[C@@H](CC(N)=O)C(=O)N1CCC[C@H]1C(=O)N[C@H](C(N)=O)[C@@H](C)O)C(C)C", "note": "(Ac-VNPT-NH2)", "values": [{"measurement": "Activity", "setting": "[1]", "value": 48, "unit": "%"}, {"measurement": "Activity", "setting": "[2]", "value": "Active"}, {"measurement": "Activity", "setting": "[3]", "value": "Active"}, {"measurement": "Activity", "setting": "[4]", "value": "Non-Toxic"}]}, {"compound": "CC(=O)N1CCC[C@H]1C(=O)N[C@H](C(=O)N[C@@H](CCC(N)=O)C(=O)N[C@@H](CCCCN)C(N)=O)[C@@H](C)O", "note": "(Ac-PTQK-NH2)", "values": [{"measurement": "Activity", "setting": "[1]", "value": 31, "unit": "%"}, {"measurement": "Activity", "setting": "[2]", "value": "Active"}, {"measurement": "Activity", "setting": "[3]", "value": "Active"}, {"measurement": "Activity", "setting": "[4]", "value": "Non-Toxic"}]}, {"compound": "CC(=O)N[C@H](CCCCN)C(=O)N[C@@H](C(=O)N[C@@H](C(=O)N[C@H](CC(N)=O)C(N)=O)C(C)C)C(C)C", "values": [{"measurement": "Activity", "setting": "[2]", "value": "Active"}, {"measurement": "Activity", "setting": "[4]", "value": "Non-Toxic"}]}, {"compound": "Ac-MGKVVNPTQK-NH2", "values": [{"measurement": "Activity", "setting": "[1]", "value": 57, "unit": "%"}, {"measurement": "Activity", "setting": "[2]", "value": "Active"}, {"measurement": "Activity", "setting": "[3]", "value": "Active"}]}, {"compound": "CC(=O)N[C@H](CC(N)=O)C(=O)N[C@@H](C(=O)N[C@@H](C(=O)N[C@H](CCCCN)C(N)=O)C(C)C)C(C)C", "values": [{"measurement": "inhibition", "setting": "[5]", "value": "inactive"}, {"measurement": "Activity", "setting": "[2]", "value": "Active"}, {"measurement": "inhibition", "setting": "[6]", "value": "inactive"}, {"measurement": "remaining at 24 h", "setting": "[7]", "value": 99.6, "unit": "%"}, {"measurement": "inhibition", "setting": "[8]", "value": "Active"}, {"measurement": "Activity", "setting": "[4]", "value": "Non-Toxic"}]}, {"compound": "CSCC[C@H](NC(C)=O)C(=O)NCC(=O)N[C@@H](CCCCN)C(=O)N[C@H](C(N)=O)C(C)C", "note": "(Ac-MGKV-NH2)", "values": [{"measurement": "Activity", "setting": "[1]", "value": 116, "unit": "%"}, {"measurement": "Activity", "setting": "[2]", "value": "Active"}, {"measurement": "Activity", "setting": "[3]", "value": "Active"}, {"measurement": "Activity", "setting": "[4]", "value": "Non-Toxic"}]}, {"compound": "CCCCCCCCCCCCCCCC(=O)N[C@@H](CCCCN)C(=O)N[C@H](C(=O)N[C@H](C(=O)N[C@@H](CCCCN)C(=O)N[C@@H](CO)C(=O)O)[C@@H](C)O)[C@@H](C)O", "note": "(Palmitoyl-KTTKS-OH)", "values": [{"measurement": "remaining at 24 h", "setting": "[7]", "value": 36, "unit": "%"}]}]}
